From BigSolDB 2.1

CC(C)=CCOc1c2ccoc2cc2oc(=O)ccc12
solubility (mole fraction)
Settings | 288.2 K | 293.2 K | 298.2 K | 303.2 K | 308.2 K | 313.2 K | 318.2 K | 323.2 K | 328.2 K
in ethanol | 0.00263 | 0.00377 | 0.00531 | 0.00733 | 0.00999 | 0.0134 | 0.0178 | 0.023 | 0.03
in water | 6.03e-07 | 7.42e-07 | 9.34e-07 | 1.02e-06 | 1.16e-06 | 1.29e-06 | 1.68e-06 | 2.17e-06 | 2.79e-06
